We go through 43 molecules from the Kinase Knowledgebase extract (Sharma et al. 2016).

By IC50 is commonly meant the midpoint of a concentration-inhibition curve. Read a low IC50 as higher potency.

The target of test [1] is MAPK14 (human) (UniProt Q16539). Briefly: Inhibition of TNF Production (PBMC).
For test [2] the target is unchanged. The experiment in a line: Inhibition of TNF Production (U937 Cells).
Test [3] has as its target MAPK14 (UniProt Q16539). The experiment in a line: p38 alpha Inhibition.

Chain of MAPK14 (human) (Q16539 whole entry, looked up): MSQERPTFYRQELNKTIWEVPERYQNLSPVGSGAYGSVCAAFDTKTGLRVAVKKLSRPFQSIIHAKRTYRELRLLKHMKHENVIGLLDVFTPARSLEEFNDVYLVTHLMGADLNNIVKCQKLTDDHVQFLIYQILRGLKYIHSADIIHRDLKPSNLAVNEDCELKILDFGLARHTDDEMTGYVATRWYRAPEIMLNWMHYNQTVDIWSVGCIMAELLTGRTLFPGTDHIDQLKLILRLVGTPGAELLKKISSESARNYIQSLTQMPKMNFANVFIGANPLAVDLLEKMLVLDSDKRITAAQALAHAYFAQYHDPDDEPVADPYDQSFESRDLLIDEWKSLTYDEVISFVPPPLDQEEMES
Chain of MAPK14 (Q16539 whole entry, looked up): as above

Take `Cc1cccc(-n2nc(C)cc2-c2ccnc(N(C)Cc3ccccc3)c2)c1`: the IC50 in test [1] is greater than 10000 nM; in test [2], 10000 nM.

The molecule `O=C(O)c1cnn(-c2ccc(F)cc2)c1-c1ccncc1` had an IC50 in test [2] of 10000 nM.

On to `Cc1cccc(-n2nc(C)cc2-c2ccnc(NCCO)c2)c1`, for which the IC50 in test [1] is 100 nM; in test [2], 210 nM.

`Cc1cccc(-n2nc(C)cc2-c2ccnc(N(C)C)c2)c1`: the IC50 in test [1] came out at 3400 nM; in test [2] it was 10000 nM.

Molecule `Cc1cc(-c2ccnc(NCCc3ccccc3)c2)n(-c2ccc(Cl)cc2)n1` yielded an ID50 in test [1] of 100 nM. This molecule came in with an IC50 in test [2] of 860 nM.

Take `CNc1cc(-c2cc(C)nn2-c2ccc(C)cc2)ccn1`: the IC50 in test [1] stood at 100 nM; in test [2] it was 17900 nM.

Turning to `COc1cc(-c2cc(C)nn2-c2cccc(C)c2)ccn1`, the IC50 in test [1] is 1900 nM; in test [2], 1310 nM.

With `Cc1ccc(-n2nc(C)cc2-c2ccnc(NCCO)c2)cc1`, the IC50 in test [1] was 200 nM.

On to `Cc1cnn(-c2cccc(F)c2)c1-c1ccncc1`, for which, in test [1], the IC50 stood at 4000 nM.

Take `Fc1ccc(-n2ncc(N3CCNCC3)c2-c2ccncc2)cc1`: the half-maximal inhibitory concentration (IC50) is greater than 10000 nM in test [1] and 10000 nM in test [2].

As for `Cc1ccc(-n2nc(C)cc2-c2ccnc(Cl)c2)cc1`, the IC50 in test [1] was determined as 2900 nM.

Regarding `Cc1cccc(-n2nc(C)cc2-c2ccnc(N(C)CCc3ccccc3)c2)c1`, in test [1], the IC50 turned out to be 800 nM.

For `Cc1cccc(-n2nc(C)cc2-c2ccnc(OCc3ccccc3)c2)c1`, the IC50 is greater than 10000 nM in test [1] and 2640 nM in test [2].

In test [1], `Cc1cccc(-n2nc(C)cc2-c2ccnc(C(N)=O)c2)c1` registered an IC50 of 5000 nM.

Turning to `NC(=O)c1cnn(-c2ccc(F)cc2)c1-c1ccncc1`, the IC50 in test [1] and in test [2] was greater than 10000 nM each time.

As for `Cc1cccc(-n2nc(C)cc2-c2ccnc(NCCc3ccccc3)c2)c1`, the IC50 in test [1] was 20 nM; in test [2], 50 nM.

As for `Fc1ccc(-n2nccc2-c2ccnc(Cl)c2)cc1`, the IC50 in test [1] is 8100 nM; in test [2] it was 10000 nM.

With `Cc1cccc(-n2nc(C)cc2-c2ccnc(C#N)c2)c1`, the results for the IC50 in test [1] and in test [2] were 1700 nM and 1650 nM, respectively.

`Cc1ccc(-n2nc(C)cc2-c2ccnc(N(C)C)c2)cc1` displayed an IC50 in test [1] greater than 10000 nM.

For `Cc1cc(-c2ccnc(C#N)c2)n(-c2ccc(F)cc2)n1`, the IC50 in test [1] and in test [2] was greater than 10000 nM each time.

Consider `Cc1cccc(-n2ncc(C)c2-c2ccncc2)c1`, for which the IC50 in test [1] worked out at 600 nM; in test [2] it was 660 nM.

In the case of `Fc1ccc(-n2nccc2-c2ccnc(NCc3ccccc3)c2)cc1`, the IC50 in test [1] was 1300 nM; in test [2], 240 nM.

`Cc1cnn(-c2ccc(F)cc2)c1-c1ccncc1`: the results for the IC50 in test [1] and in test [2] were 100 nM and 10000 nM, respectively.

`Cc1cccc(-n2nc(C)cc2-c2ccnc(S(C)(=O)=O)c2)c1`: the IC50 in test [1] was greater than 10000 nM.

`Cc1ccc(-n2nc(C)cc2-c2cccc(N)c2)cc1`: the IC50 in test [1] was greater than 10000 nM.

Molecule `Cc1cc(-c2ccnc(Cl)c2)n(-c2cccc(F)c2)n1` showed an IC50 in test [2] greater than 10000 nM.

On to `Cc1cccc(-n2nc(C)cc2-c2ccnc(NCc3ccccc3)c2)c1`, for which the IC50 in test [1] turned out to be 100 nM.

For the molecule `CCc1cnn(-c2cccc(F)c2)c1-c1ccncc1`, the figures for the IC50 in test [1], in test [3] and in test [2] were 700 nM, 16500 nM and 1150 nM, respectively.

Take `CCCc1cnn(-c2cccc(F)c2)c1-c1ccncc1`: the values for the IC50 in test [1], in test [3] and in test [2] were 1300 nM, 1480 nM and 830 nM, respectively.

On to `Cc1cc(-c2ccnc(NCc3cccnc3)c2)n(-c2cccc(F)c2)n1`, for which the IC50 in test [1] worked out at 600 nM.

As for `Cc1ccc(-n2nc(C)cc2-c2ccnc(NCc3cccnc3)c2)cc1`, in test [1], the IC50 was 1500 nM.

Regarding `Cc1cc(-c2ccnc(NCc3ccccc3)c2)n(-c2ccc(Cl)cc2)n1`, the IC50 in test [1] is 300 nM; in test [2], 200 nM.

Molecule `Cc1ccc(-n2nc(C)cc2-c2ccnc(NCc3ccccc3)c2)cc1` returned an IC50 in test [1] of 1100 nM.

With `Fc1ccc(-n2nccc2-c2ccnc(NCCc3ccccc3)c2)cc1`, the IC50 in test [1] amounted to 10000 nM. This IC50 lies about 9.1-fold higher than the previous one.

Regarding `CCNc1cc(-c2cc(C)nn2-c2ccc(C)cc2)ccn1`, the results for the IC50 in test [1] and in test [2] were 200 nM and 720 nM, respectively.

Regarding `Cc1cccc(-n2nc(C)cc2-c2ccnc(N)c2)c1`, the concentration for half-maximal inhibition (IC50) in test [1] is 500 nM.

As for `Cc1cc(-c2ccnc(NCCO)c2)n(-c2ccc(Cl)cc2)n1`, the IC50 in test [1] worked out at 100 nM; in test [2], 480 nM.

As for `CCNc1cc(-c2ccncc2)n(-c2ccc(F)cc2)n1`, the figures for the IC50 in test [1] and in test [2] were greater than 10000 nM and 10000 nM, respectively.

Turning to `Cc1cnn(Cc2ccccc2)c1-c1ccncc1`, in test [1], the IC50 is greater than 10000 nM.

Take `O=C(c1cnn(-c2ccc(F)cc2)c1-c1ccncc1)N1CCNCC1`: the IC50 in test [1] was greater than 10000 nM; in test [2], 10000 nM.

For the molecule `Cc1cc(-c2ccnc(N=[N+]=[N-])c2)n(-c2cccc(F)c2)n1`, the IC50 in test [1] came to 2200 nM.

`COC(=O)c1cnn(-c2ccc(F)cc2)c1-c1ccncc1` showed an IC50 in test [2] of 10000 nM. This lies in the double-digit micromolar range.

Regarding `Cc1cccc(-n2nc(C)cc2-c2cc[nH]c(=O)c2)c1`, the IC50 is 2400 nM in test [1] and 10000 nM in test [2].
